The nature of experiment [1]: Inhibition of sodium/potassium ATPAse.
Experiment [2] is filed under the species Capra hircus. The experiment can be described thus: Inhibition of goat Ca2+-ATPase assessed as liberation of inorganic phosphate preincubated for 5 mins measured after 30 mins following ATP addition by colorimetric analysis in absence of Mg2+ and 300 uM verapamil.
Experiment [3] is described as follows: Inhibition of goat Ca2+-ATPase assessed as liberation of inorganic phosphate preincubated for 5 mins measured after 30 mins following ATP addition by colorimetric analysis in absence of Mg2+. Also on record: species or system Capra hircus. As to conditions: read-out: I50.
A short description of experiment [4]: Inhibition of goat Ca2+-ATPase assessed as liberation of inorganic phosphate preincubated for 5 mins measured after 30 mins following ATP addition by colorimetric analysis in presence of Mg2+. Also noted: species or system Capra hircus. As to conditions: read-out: I50.
Experiment [5] is filed under the species Capra hircus. The experiment can be described thus: Inhibition of goat Ca2+-ATPase assessed as liberation of inorganic phosphate preincubated for 5 mins measured after 30 mins following ATP addition by colorimetric analysis in presence of Mg2+ and 300 uM verapamil.

Calls of active or inactive are those of the source. No cut-off for these calls is given here.

Regarding `CCOC(=O)C1=C(C)NC(=O)NC1c1ccccc1Cl` (stereo not given), the inhibition result in experiment [1] is “inactive”. Further, the inhibition result in the experiment filed under Capra hircus [2] and in the experiment filed under Capra hircus [5] was “Active” throughout. Also, the IC50 in experiment [3] came out at 247 µM; in experiment [4], 268 µM.
For `CCOC(=O)C1=C(C)NC(=O)NC1c1ccccc1` (stereo not given), the inhibition result in experiment [1] is “inactive”. The inhibition entry in the experiment filed under Capra hircus [2] and in the experiment listed under Capra hircus [5] was “Active” each time. The IC50 in experiment [3] was found to be 226 µM; in experiment [4], 222 µM.
Regarding `CCOC(=O)C1=C(C)NC(=O)NC1c1ccc(O)cc1` (stereo not given), the inhibition entry in experiment [1] was “inactive”. In addition, the inhibition entry in the experiment listed under Capra hircus [2] and in the experiment listed under Capra hircus [5] was “Active” each time. The IC50 came out at 203 µM in experiment [3] and 289 µM in experiment [4].
Take `CCOC(=O)C1=C(C)NC(=O)NC1c1cccc([N+](=O)[O-])c1` (stereo not given): the inhibition result in experiment [1] was “inactive”. The inhibition result in the experiment filed under Capra hircus [2] and in the experiment filed under Capra hircus [5] was “Active” throughout. Besides, the IC50 in experiment [3] worked out at 282 µM; in experiment [4], 132 µM.
